Reference: ChEMBL document CHEMBL4619760, “Anti-inflammatory Efficacy of Combined Natural Alkaloid Berberine and S1PR Modulator Fingolimod at Low Doses in Ulcerative Colitis Preclinical Models” (J Nat Prod, 2020)
Active and inactive are the calls of the source. No cut-off for these calls is given here.

Columns and labels:
[1] = test system: Mus musculus; test: Anti-colitis activity against DSS-induced C57BL/6 mouse model of subchronic relapsing colitis assessed as reduction in spleen swelling at 40 mg/kg, po administered once daily for 14 days starting from day 5 post DSS-challenge; assay type: functional, organism-based
[2] = test system: Mus musculus; test: Anti-colitis activity against DSS-induced C57BL/6 mouse model of chronic relapsing colitis assessed as reduction in DSS-induced inflammatory cell infiltration at 40 mg/kg, po administered once daily for 30 days starting from day 13 post DSS-challenge by hematoxylin and eosin staining based light microscopic analysis; assay type: functional, organism-based
[3] = test system: Mus musculus; test: Antiinflammatory activity against DSS-induced C57BL/6 mouse model of subchronic relapsing colitis assessed as reduction in IL6 mRNA level at 40 mg/kg, po administered once daily for 14 days starting from day 5 post DSS-challenge by RT-qPCR analysis; assay type: functional, organism-based
[4] = test system: Mus musculus; test: Anti-colitis activity against DSS-induced C57BL/6 mouse model of subchronic relapsing colitis assessed as reduction in disease activity index at 40 mg/kg, po administered once daily for 14 days starting from day 5 post DSS challenge and measured on day 19; assay type: functional, organism-based
[5] = Toxicity in DSS-induced C57BL/6 mouse model of chronic relapsing colitis assessed as induction of abnormalities in liver at 40 mg/kg, po administered once daily for 30 days starting from day 13 post DSS-challenge by hematoxylin and eosin staining based light microscopic analysis; assay type: organism-based; settings: in vivo, 720 h
[6] = test system: Mus musculus; test: Anti-colitis activity against DSS-induced C57BL/6 mouse model of chronic relapsing colitis assessed as reduction in stool bleeding at 40 mg/kg, po administered once daily for 30 days starting from day 13 post DSS-challenge measured on day 38; assay type: functional, organism-based
[7] = test system: Mus musculus; test: Anti-colitis activity against DSS-induced C57BL/6 mouse model of subchronic relapsing colitis assessed as reduction in stool bleeding scores at 40 mg/kg, po administered once daily for 14 days starting from day 5 post DSS challenge and measured on day 19; assay type: functional, organism-based
[8] = test system: Mus musculus; test: Effect on total S1PR1 expression in DSS-induced C57BL/6 mouse model of subchronic relapsing colitis at 40 mg/kg, po administered once daily for 14 days starting from day 5 post DSS-challenge by Western blot analysis; assay type: ADME, organism-based; settings: in vivo, 336 h
[9] = test system: Mus musculus; test: Antiinflammatory activity against DSS-induced C57BL/6 mouse model of subchronic relapsing colitis assessed as reduction in S1PR1 mRNA level at 40 mg/kg, po administered once daily for 14 days starting from day 5 post DSS-challenge by RT-qPCR analysis; assay type: functional, organism-based
[10] = test system: Mus musculus; test: Anti-colitis activity against DSS-induced C57BL/6 mouse model of chronic relapsing colitis assessed as reduction in DSS-induced loss of colon crypt and columnar epithelium at 40 mg/kg, po administered once daily for 30 days starting from day 13 post DSS-challenge by hematoxylin and eosin staining based light microscopic analysis; assay type: functional, organism-based
[11] = test system: Mus musculus; test: Antiinflammatory activity against DSS-induced C57BL/6 mouse model of subchronic relapsing colitis assessed as reduction in TNFalpha mRNA level at 40 mg/kg, po administered once daily for 14 days starting from day 5 post DSS-challenge by RT-qPCR analysis; assay type: functional, organism-based
[12] = test system: Mus musculus; test: Anti-colitis activity against DSS-induced C57BL/6 mouse model of subchronic relapsing colitis assessed as effect on body weight at 40 mg/kg, po administered once daily for 14 days starting from day 5 post DSS challenge and measured after day 12 to day 18; assay type: functional, organism-based
[13] = Toxicity in DSS-induced C57BL/6 mouse model of chronic relapsing colitis assessed as induction of abnormalities in heart at 40 mg/kg, po administered once daily for 30 days starting from day 13 post DSS-challenge by hematoxylin and eosin staining based light microscopic analysis; assay type: organism-based; settings: in vivo, 720 h
[14] = test system: Mus musculus; test: Anti-colitis activity against DSS-induced C57BL/6 mouse model of subchronic relapsing colitis assessed as reduction in stool consistency scores at 40 mg/kg, po administered once daily for 14 days starting from day 5 post DSS challenge and measured on day 19; assay type: functional, organism-based
[15] = test system: Mus musculus; test: Anti-colitis activity against DSS-induced C57BL/6 mouse model of chronic relapsing colitis assessed as reduction in disease activity index at 40 mg/kg, po administered once daily for 30 days starting from day 13 post DSS-challenge and measured on day 43; assay type: functional, organism-based
[16] = test system: Mus musculus; test: Anti-colitis activity against DSS-induced C57BL/6 mouse model of subchronic relapsing colitis assessed as reduction in phosphorylated STAT3 level at 40 mg/kg, po administered once daily for 14 days starting from day 5 post DSS-challenge by Western blot analysis; assay type: functional, organism-based
[17] = Toxicity in DSS-induced C57BL/6 mouse model of chronic relapsing colitis assessed as induction of abnormalities in kidney at 40 mg/kg, po administered once daily for 30 days starting from day 13 post DSS-challenge by hematoxylin and eosin staining based light microscopic analysis; assay type: organism-based; settings: in vivo, 720 h
[18] = test system: Mus musculus; test: Anti-colitis activity against DSS-induced C57BL/6 mouse model of subchronic relapsing colitis assessed as reduction in colon swelling at 40 mg/kg, po administered once daily for 14 days starting from day 5 post DSS-challenge; assay type: functional, organism-based
[19] = test system: Mus musculus; test: Anti-colitis activity against DSS-induced C57BL/6 mouse model of subchronic relapsing colitis assessed as reduction in DSS-induced colon shortening at 40 mg/kg, po administered once daily for 14 days starting from day 5 post DSS-challenge; assay type: functional, organism-based
[20] = test system: Mus musculus; test: Anti-colitis activity against DSS-induced C57BL/6 mouse model of subchronic relapsing colitis assessed as reduction in DSS-induced colon swelling at 40 mg/kg, po administered once daily for 30 days starting from day 13 post DSS-challenge; assay type: functional, organism-based
[21] = Toxicity in DSS-induced C57BL/6 mouse model of chronic relapsing colitis assessed as induction of abnormalities in brain at 40 mg/kg, po administered once daily for 30 days starting from day 13 post DSS-challenge by hematoxylin and eosin staining based light microscopic analysis; assay type: organism-based; settings: in vivo, 720 h
[22] = target: Signal transducer and activator of transcription 3 (Homo sapiens) (UniProt P40763); test: Inhibition of STAT3 activation in human THP1 cells assessed as reduction in LPS-induced phosphorylated STAT3 expression at 1 uM incubated for 1 hr followed by LPS challenge and measured after 4 to 6 hrs by Western blot analysis; assay type: cell-based; settings: THP-1
Sequence of Signal transducer and activator of transcription 3 (Homo sapiens) (P40763 whole entry): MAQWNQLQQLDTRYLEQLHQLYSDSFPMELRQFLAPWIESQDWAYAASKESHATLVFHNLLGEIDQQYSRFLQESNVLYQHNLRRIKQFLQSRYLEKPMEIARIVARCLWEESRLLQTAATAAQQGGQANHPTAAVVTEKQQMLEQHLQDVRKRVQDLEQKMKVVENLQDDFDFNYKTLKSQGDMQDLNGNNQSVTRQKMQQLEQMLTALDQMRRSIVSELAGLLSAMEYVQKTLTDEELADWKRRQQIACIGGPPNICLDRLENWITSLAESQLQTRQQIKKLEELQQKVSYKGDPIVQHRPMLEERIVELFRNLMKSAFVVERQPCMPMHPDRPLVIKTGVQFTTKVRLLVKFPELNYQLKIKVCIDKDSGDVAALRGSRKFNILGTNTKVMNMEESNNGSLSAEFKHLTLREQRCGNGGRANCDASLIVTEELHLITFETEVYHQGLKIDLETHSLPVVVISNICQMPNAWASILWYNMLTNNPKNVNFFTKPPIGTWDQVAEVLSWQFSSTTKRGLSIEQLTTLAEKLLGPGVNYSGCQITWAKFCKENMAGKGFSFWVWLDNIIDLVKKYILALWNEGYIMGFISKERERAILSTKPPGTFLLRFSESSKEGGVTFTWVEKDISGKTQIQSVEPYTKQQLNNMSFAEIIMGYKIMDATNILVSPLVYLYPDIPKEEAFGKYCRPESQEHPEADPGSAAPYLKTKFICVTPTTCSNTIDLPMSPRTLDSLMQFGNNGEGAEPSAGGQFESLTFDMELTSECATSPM

[23] = test system: Mus musculus; test: Antiinflammatory activity against DSS-induced C57BL/6 mouse model of subchronic relapsing colitis assessed as reduction in IL17 mRNA level at 40 mg/kg, po administered once daily for 14 days starting from day 5 post DSS-challenge by RT-qPCR analysis; assay type: functional, organism-based
[24] = test system: THP-1; test: Antiinflammatory activity in human THP1 cells assessed as reduction in LPS-induced IL6 mRNA level at 1 uM incubated for 1 hr followed by LPS challenge and measured after 4 to 6 hrs by q-PCR method; assay type: functional, cell-based
[25] = Toxicity in DSS-induced C57BL/6 mouse model of chronic relapsing colitis assessed as induction of abnormalities in lung at 40 mg/kg, po administered once daily for 30 days starting from day 13 post DSS-challenge by hematoxylin and eosin staining based light microscopic analysis; assay type: organism-based; settings: in vivo, 720 h
[26] = test system: Mus musculus; test: Anti-colitis activity against DSS-induced C57BL/6 mouse model of chronic relapsing colitis assessed as reduction in DSS-induced multiple erosive lesions in colon at 40 mg/kg, po administered once daily for 30 days starting from day 13 post DSS-challenge by hematoxylin and eosin staining based light microscopic analysis; assay type: functional, organism-based
[27] = test system: Mus musculus; test: Anti-colitis activity against DSS-induced C57BL/6 mouse model of chronic relapsing colitis assessed as reduction in stool consistency score at 40 mg/kg, po administered once daily for 30 days starting from day 13 post DSS-challenge measured on day 24; assay type: functional, organism-based
[28] = test system: Mus musculus; test: Anti-colitis activity against DSS-induced C57BL/6 mouse model of chronic relapsing colitis assessed as reduction in stool consistency score at 40 mg/kg, po administered once daily for 30 days starting from day 13 post DSS-challenge measured on day 43; assay type: functional, organism-based
[29] = test system: Mus musculus; test: Anti-colitis activity against DSS-induced C57BL/6 mouse model of chronic relapsing colitis assessed as reduction in disease activity index at 40 mg/kg, po administered once daily for 30 days starting from day 13 post DSS-challenge and measured on day 24; assay type: functional, organism-based
[30] = test system: THP-1; test: Antiinflammatory activity in human THP1 cells assessed as reduction in LPS-induced TNFalpha mRNA level at 1 uM incubated for 1 hr followed by LPS challenge and measured after 4 to 6 hrs by q-PCR method; assay type: functional, cell-based
[31] = test system: Mus musculus; test: Anti-colitis activity against DSS-induced C57BL/6 mouse model of chronic relapsing colitis assessed as reversal of DSS-induced colon shortening at 40 mg/kg, po administered once daily for 30 days starting from day 13 post DSS-challenge; assay type: functional, organism-based
[32] = target: Signal transducer and activator of transcription 3 (Homo sapiens) (UniProt P40763); test: Inhibition of STAT3 activation in human THP1 cells assessed as reduction in LPS-induced phosphorylated STAT3 expression at 0.5 uM cotreated with 0.5 uM berberine incubated for 1 hr followed by LPS challenge and measured after 4 to 6 hrs by Western blot analysis; assay type: cell-based; settings: THP-1
[33] = test system: Mus musculus; test: Anti-colitis activity against DSS-induced C57BL/6 mouse model of chronic relapsing colitis assessed as reduction in stool bleeding at 40 mg/kg, po administered once daily for 30 days starting from day 13 post DSS-challenge measured on day 43; assay type: functional, organism-based
[34] = test system: Mus musculus; test: Effect on total STAT3 expression in DSS-induced C57BL/6 mouse model of subchronic relapsing colitis at 40 mg/kg, po administered once daily for 14 days starting from day 5 post DSS-challenge by Western blot analysis; assay type: ADME, organism-based; settings: in vivo, 336 h

Compound: COc1ccc2cc3[n+](cc2c1OC)CCc1cc2c(cc1-3)OCO2.[Cl-] [BERBERINE CHLORIDE]
- Activity [1]: inactive
- Activity [2]: Active
- Activity [3]: Active
- Activity [4]: Active
- Activity [5]: Non-Toxic
- Activity [6]: Active
- Activity [7]: Active
- Activity [8]: Non-Toxic
- Activity [9]: inactive
- Activity [10]: Active
- Activity [11]: Active
- Activity [12]: inactive
- Activity [13]: Non-Toxic
- Activity [14]: Active
- Activity [15]: Active
- Activity [16]: Active
- Activity [17]: Non-Toxic
- Activity [18]: inactive
- Activity [19]: Active
- Activity [20]: inactive
- Activity [21]: Non-Toxic
- inhibition [22]: Active
- Activity [23]: Active
- Activity [24]: Active
- Activity [25]: Non-Toxic
- Activity [26]: Active
- Activity [27]: Active
- Activity [28]: Active
- Activity [29]: Active
- Activity [30]: Active
- Activity [31]: Active
- inhibition [32]: Active
- Activity [33]: Active
- Activity [34]: Non-Toxic
